Source: patent US7754765B2, “Copper chelators for treating ocular inflammation” (Radical Vision Therapeutics Inc, priority 2000, dated 2010)

Tests used:
retina [1] = experiment: Retinal thickness (edema) after laser photocoagulation in rats; assay type: in vivo, Long-Evans rats; conditions: 0.5 mmol/kg/day intraperitoneally; for retinal thickness, greater than that in normal retina: saline control 50%; for retinal thickness (edema) compared with control (saline injected), in words: day 1 post photocoagulation
retina [2] = experiment: Retinal thickness (edema) after PDT (verteporfin) in rabbits; assay type: in vivo, Pigmented rabbits; conditions: for retinal thickness, greater than that in normal retina: 24 hours after PDT, 0.2 mmol/kg/day intramuscularly, saline control 140%; for retinal thickness (edema) compared with control (saline injected), in words: day 1 post PDT, TRIEN or TETREN (0.2 mM/day)
[3] = test system: ED-1 immunoreactive (macrophage) cells in retina; experiment: ED-1 (macrophage) immunostaining of retina after photocoagulation in rats; assay type: in vivo; conditions: vs saline injected; for number of ED-1 positive retina cells relative to controls (in words): 24 hours after laser treatment; for number of ED-1 positive cells, times less than control: Day 1 post photocoagulation, average of four 40× objective fields

Row | Compound | retinal thickness, greater than that in the control animals (saline injected) (retina [1]; 24 hours post photocoagulation) [%] | retinal thickness, greater than that in normal retina (retina [1]; 24 hours post photocoagulation) [%] | retinal thickness (edema) compared with control (saline injected), in words (retina [1]) | retinal thickness (edema) compared with control (saline injected), in words (retina [1]; listed as DPA) | retinal thickness, greater than that in normal retina (retina [2]) [%] | retinal thickness (edema) compared with control (saline injected), in words (retina [2]) | number of ED-1 positive retina cells relative to controls (in words) [3] | number of ED-1 positive cells, times less than control [3]
1 | CC(C)(S)[C@@H](N)C(=O)O [D-PA, D-penicillamine] | 35 | 85 | greater than that in control eyes | showed the opposite effect | – | – | – | –
2 | NCCNCCNCCNCCN [TETREN, tetraethylenepentamine] | – | 26 | retinal thickness of eyes from control animals (saline injected) is greater | – | 45 | significantly less than that in control | more than half that of control animals | 2.5 times
3 | NCCNCCNCCN [TRIEN, triethylenetetramine] | – | 23 | retinal thickness of eyes from control animals (saline injected) is greater | – | 50 | significantly less than that in control | approximately half that of the controls | two times less
